Reference: patent US10202374B2, “6-aryl-4-phenylamino-quinazoline analogs as phosphoinositide-3-kinase inhibitors” (COUNCIL OF SCIENTIFIC & INDUSTRIAL RESEARCH, priority 2014, dated 2019)
pIC50: −log10 of the molar value.

Columns and labels:
HL-60 (leukemia) cells = test: MTT cytotoxicity assay, HL-60; format: cell-based; details: Homo sapiens, 48 h treatment, read-out: Anticancer activity IC50 HL-60
Description: (§1) Compounds proposed in present invention were evaluated for their cytotoxic effect against panel of 5 cancer cell line viz. Panc-1 (pancreatic cancer), MCF-7 (breast cancer), PC-3 (prostate), HL-60 (leukemia) and A-375 (melanoma) using MTT assay. In each well of a 96-well plate, 3×10^3 cells were grown in 100 μL of medium. After 24 h, each test molecules were added to achieve a final concentration of 10 to 0.01 μmol/L, respectively. After 48 h of treatment, 20 μL of 2.5 mg/mL MTT (Organics Research, Inc.) solution in phosphate buffer saline was added to each well. […], supernatant was removed and formazan crystals were dissolved in 200 μL of DMSO. Absorbance was then measured at 570 nm using an absorbance plate reader (Bio-Rad Microplate Reader). Data are expressed as the percentage of viable cells in treated relative to non-treated conditions. Each experiment was repeated thrice and data was expressed as mean±SD of three independent experiments (Mordant, P. et al., Mol. Cancer Ther. 2010, 9, 358).

A-375 (melanoma) cells = test: MTT cytotoxicity assay, A375; format: cell-based; details: Homo sapiens, 48 h treatment, read-out: Anticancer activity IC50 A375
Description: as §1

[1] = system: MCF-7 (breast cancer) cells; test: MTT cytotoxicity assay, MCF-7; format: cell-based; details: Homo sapiens, MCF7, 48 h treatment, read-out: Anticancer activity IC50 MCF-7
Description: as §1

[2] = system: Panc-1 (pancreatic cancer) cells; test: MTT cytotoxicity assay, Panc-1; format: cell-based; details: Homo sapiens, 48 h treatment, read-out: Anticancer activity IC50 Panc-1
Description: as §1

[3] = system: PC-3 (prostate cancer) cells; test: MTT cytotoxicity assay, PC-3; format: cell-based; details: Homo sapiens, 48 h treatment, read-out: Anticancer activity IC50 PC-3
Description: as §1

PI3K-α = PI3K-α (Homo sapiens, UniProt P42336); test: PI3K-α assay (ADP-Glo); format: biochemical; details: for pIC50: read-out: PI3K inhibition IC50 -α
Description: The enzyme is assayed for 80 min after which 20 ul of ADP-Glo reagent is added. After a further incubation of 40 min, 40 ul of Kinase Detection Buffer is added. The assays are incubated for 40 min and then read on PerkinElmer Envision for 1 sec/well.

PI3K-β = PI3K-β (Homo sapiens, UniProt P42338); test: PI3K-β assay (ADP-Glo); format: biochemical; details: for pIC50: read-out: PI3K inhibition IC50 -β; for Fold-selectivity for PI3K-α with respect to -β: α versus β isoform
Description: The enzyme is assayed for 60 min after which 20 ul of ADP-Glo reagent is added. After a further incubation of 40 min, 40 ul of kinase detection Buffer is added. The assays are incubated for 40 min and then read on PerkinElmer Envision for 1 sec/well.

PI3K-γ = PI3K-γ (Homo sapiens, UniProt P48736); test: PI3K-γ assay (ADP-Glo); format: biochemical; details: for pIC50: read-out: PI3K inhibition IC50 -γ; for Fold-selectivity for PI3K-α with respect to -γ: α versus γ isoform
Description: The enzyme is assayed for 75 min after which 20 ul of ADP-Glo reagent is added. After a further incubation of 40 min, 40 ul of Kinase Detection Buffer is added. The assays are incubated for 40 min and then read on PerkinElmer Envision for 1 sec/well.

PI3K-δ = PI3K-δ (Homo sapiens, UniProt O00329); test: PI3K-δ assay (ADP-Glo); format: biochemical; details: for pIC50: read-out: PI3K inhibition IC50 -δ; for Fold-selectivity for PI3K-α with respect to -δ: α versus δ isoform
Chain of PI3K-δ (O00329 whole entry, species assumed, canonical isoform): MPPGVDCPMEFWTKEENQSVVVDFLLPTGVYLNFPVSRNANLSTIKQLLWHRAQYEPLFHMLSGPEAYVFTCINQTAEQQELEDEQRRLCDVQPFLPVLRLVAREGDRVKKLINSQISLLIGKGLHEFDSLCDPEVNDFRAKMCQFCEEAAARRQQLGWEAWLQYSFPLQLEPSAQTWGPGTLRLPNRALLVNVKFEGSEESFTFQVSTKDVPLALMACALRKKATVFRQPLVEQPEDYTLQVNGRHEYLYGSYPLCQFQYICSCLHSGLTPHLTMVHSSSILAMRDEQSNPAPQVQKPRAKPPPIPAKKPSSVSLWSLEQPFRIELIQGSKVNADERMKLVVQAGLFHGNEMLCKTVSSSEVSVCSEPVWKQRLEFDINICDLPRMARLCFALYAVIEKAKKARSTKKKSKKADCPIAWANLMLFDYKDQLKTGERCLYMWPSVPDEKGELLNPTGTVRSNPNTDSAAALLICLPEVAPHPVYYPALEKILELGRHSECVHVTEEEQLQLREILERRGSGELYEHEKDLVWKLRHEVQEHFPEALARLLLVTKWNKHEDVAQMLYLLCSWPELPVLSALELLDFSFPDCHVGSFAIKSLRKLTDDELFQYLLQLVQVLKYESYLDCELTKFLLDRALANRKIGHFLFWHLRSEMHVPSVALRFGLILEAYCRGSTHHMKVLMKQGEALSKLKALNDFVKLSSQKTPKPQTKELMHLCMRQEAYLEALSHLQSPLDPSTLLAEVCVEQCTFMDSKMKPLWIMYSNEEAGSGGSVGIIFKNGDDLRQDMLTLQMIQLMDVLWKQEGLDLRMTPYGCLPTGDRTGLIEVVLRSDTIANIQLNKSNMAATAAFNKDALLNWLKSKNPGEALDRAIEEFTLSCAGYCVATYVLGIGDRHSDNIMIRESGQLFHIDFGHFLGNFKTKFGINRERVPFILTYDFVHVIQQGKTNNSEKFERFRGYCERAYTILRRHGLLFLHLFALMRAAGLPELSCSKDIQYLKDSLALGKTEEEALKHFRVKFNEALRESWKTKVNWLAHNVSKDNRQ
Chain of PI3K-δ (P27986 whole entry partner, species assumed, canonical isoform): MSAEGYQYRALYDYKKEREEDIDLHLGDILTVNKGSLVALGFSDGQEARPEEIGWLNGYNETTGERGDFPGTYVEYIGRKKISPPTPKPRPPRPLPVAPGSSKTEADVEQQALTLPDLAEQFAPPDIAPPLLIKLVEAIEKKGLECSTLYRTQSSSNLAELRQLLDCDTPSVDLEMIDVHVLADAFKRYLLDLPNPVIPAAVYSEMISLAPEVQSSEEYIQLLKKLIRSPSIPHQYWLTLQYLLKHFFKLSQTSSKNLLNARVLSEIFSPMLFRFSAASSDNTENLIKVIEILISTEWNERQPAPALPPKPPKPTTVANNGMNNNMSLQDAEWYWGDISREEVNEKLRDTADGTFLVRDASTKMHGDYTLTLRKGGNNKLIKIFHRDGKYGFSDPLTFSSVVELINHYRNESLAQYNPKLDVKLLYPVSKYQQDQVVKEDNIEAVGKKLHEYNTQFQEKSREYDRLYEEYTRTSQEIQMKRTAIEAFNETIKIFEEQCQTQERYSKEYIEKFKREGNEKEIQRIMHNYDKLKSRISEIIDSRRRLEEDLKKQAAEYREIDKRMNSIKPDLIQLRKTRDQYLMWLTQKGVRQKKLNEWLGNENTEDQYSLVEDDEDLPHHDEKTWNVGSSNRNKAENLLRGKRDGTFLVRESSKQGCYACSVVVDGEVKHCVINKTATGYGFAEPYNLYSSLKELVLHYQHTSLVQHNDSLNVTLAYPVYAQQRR
Description: Compounds proposed in present invention were evaluated for their inhibitory activity on phosphoinositide-3-kinase-alpha and other isoforms (beta, gamma and delta). […] The protocols used for these bioassays are as follows:
The enzyme is assayed for 120 min after which 20 ul of ADP-Glo reagent is added. After a further incubation of 40 min, 40 ul of Kinase Detection Buffer is added. The assays are incubated for 40 min and then read on PerkinElmer Envision for 1 sec/well.

Chain of PI3K-α (P42336 whole entry, canonical isoform): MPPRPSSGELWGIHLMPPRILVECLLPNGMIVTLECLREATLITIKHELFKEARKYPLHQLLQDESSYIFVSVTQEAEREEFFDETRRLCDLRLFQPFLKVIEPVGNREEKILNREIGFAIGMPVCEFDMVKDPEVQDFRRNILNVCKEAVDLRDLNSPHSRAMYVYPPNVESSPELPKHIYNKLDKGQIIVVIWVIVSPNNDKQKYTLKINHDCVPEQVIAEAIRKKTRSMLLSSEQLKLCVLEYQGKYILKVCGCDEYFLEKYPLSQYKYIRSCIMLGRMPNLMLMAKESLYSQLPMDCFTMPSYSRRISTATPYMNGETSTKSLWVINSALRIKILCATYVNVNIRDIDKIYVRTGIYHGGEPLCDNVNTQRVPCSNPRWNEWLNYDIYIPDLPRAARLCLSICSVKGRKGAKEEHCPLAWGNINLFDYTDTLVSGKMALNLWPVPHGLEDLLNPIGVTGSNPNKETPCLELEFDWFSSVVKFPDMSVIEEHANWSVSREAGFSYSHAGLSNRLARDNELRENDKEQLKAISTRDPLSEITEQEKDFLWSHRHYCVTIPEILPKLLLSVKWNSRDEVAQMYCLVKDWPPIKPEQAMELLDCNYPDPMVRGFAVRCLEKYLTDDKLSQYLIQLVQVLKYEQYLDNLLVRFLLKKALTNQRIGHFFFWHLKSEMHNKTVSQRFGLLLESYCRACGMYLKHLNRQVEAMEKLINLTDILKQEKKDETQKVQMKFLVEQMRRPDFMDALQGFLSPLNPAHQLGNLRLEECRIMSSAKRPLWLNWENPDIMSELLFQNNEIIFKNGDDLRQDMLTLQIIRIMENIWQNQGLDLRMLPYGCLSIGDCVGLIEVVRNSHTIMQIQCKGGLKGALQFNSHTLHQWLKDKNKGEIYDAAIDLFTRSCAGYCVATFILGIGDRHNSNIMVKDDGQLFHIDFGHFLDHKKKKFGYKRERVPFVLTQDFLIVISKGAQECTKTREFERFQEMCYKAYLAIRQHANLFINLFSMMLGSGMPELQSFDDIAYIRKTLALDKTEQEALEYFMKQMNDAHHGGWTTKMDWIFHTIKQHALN
Chain of PI3K-α (P27986 whole entry partner, canonical isoform): as the sequence (P27986 whole entry partner, species assumed, canonical isoform) above
Chain of PI3K-β (P42338 whole entry, species assumed, canonical isoform): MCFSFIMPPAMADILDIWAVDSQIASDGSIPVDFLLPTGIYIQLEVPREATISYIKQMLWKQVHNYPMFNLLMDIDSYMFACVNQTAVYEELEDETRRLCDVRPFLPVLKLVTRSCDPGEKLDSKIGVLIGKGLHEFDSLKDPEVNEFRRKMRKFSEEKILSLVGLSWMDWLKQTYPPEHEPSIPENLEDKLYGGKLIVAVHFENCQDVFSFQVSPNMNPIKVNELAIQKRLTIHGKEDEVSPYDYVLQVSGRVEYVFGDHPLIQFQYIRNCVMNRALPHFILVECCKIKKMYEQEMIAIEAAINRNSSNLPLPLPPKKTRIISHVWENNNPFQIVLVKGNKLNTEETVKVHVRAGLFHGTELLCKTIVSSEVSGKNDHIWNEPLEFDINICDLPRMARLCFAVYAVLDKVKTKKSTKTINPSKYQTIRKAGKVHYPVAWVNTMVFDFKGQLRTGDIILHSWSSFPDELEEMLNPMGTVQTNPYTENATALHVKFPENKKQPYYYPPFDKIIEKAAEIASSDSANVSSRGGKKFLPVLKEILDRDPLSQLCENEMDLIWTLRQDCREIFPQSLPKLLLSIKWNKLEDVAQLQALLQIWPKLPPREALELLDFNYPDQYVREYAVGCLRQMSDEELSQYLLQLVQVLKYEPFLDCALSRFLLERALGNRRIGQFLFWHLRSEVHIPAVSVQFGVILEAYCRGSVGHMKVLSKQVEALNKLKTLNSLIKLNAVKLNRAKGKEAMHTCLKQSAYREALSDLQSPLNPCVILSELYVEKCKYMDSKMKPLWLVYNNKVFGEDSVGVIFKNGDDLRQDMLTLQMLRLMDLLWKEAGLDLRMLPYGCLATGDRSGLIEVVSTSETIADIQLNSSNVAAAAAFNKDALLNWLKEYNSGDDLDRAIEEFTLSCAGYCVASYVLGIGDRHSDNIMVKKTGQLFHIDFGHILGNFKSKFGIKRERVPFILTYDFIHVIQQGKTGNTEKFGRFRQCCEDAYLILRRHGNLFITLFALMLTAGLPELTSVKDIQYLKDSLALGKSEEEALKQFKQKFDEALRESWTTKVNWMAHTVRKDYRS
Chain of PI3K-β (P27986 whole entry partner, species assumed, canonical isoform): as the sequence (P27986 whole entry partner, species assumed, canonical isoform) above
Chain of PI3K-γ (P48736 whole entry, species assumed, canonical isoform): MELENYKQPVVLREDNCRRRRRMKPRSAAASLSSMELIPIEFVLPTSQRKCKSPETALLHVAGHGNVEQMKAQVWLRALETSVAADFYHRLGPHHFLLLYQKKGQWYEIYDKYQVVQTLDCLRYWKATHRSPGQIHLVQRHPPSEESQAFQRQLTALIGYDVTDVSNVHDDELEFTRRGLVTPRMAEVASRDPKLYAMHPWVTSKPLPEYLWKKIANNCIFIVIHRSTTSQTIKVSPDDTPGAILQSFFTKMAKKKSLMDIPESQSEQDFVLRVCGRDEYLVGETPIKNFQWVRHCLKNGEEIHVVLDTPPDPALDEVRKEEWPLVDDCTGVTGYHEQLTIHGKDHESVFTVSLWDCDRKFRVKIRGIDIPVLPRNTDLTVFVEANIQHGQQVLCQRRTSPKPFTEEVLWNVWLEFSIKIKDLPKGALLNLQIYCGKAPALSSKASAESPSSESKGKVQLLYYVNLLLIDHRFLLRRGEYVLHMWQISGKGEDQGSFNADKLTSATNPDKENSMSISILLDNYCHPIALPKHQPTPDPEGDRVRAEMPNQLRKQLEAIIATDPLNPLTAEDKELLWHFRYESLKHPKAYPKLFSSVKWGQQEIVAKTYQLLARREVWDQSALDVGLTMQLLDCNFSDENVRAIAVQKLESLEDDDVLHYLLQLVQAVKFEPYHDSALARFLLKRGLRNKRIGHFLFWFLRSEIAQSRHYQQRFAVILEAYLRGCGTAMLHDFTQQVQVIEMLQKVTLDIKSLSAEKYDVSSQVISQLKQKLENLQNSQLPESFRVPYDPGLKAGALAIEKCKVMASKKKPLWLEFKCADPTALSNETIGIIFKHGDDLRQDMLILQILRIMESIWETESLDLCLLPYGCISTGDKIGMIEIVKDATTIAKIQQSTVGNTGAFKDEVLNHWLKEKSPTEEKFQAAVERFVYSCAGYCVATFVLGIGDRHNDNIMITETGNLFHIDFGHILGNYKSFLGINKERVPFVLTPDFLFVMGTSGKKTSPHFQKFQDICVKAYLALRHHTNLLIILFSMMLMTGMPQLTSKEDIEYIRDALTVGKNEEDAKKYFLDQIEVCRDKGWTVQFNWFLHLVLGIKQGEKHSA

SMILES	pIC50 (HL-60 (leukemia) cells)	pIC50 (A-375 (melanoma) cells)	pIC50 [1]	pIC50 [2]	pIC50 [3]	inhibition at 0.5 µM (PI3K-α; 0.5 μM, preliminary screening) [%]	pIC50 (PI3K-α)	pIC50 (PI3K-β)	Fold-selectivity for PI3K-α with respect to -β (PI3K-β) [fold]	pIC50 (PI3K-γ)	Fold-selectivity for PI3K-α with respect to -γ (PI3K-γ) [fold]	pIC50 (PI3K-δ)	Fold-selectivity for PI3K-α with respect to -δ (PI3K-δ) [fold]	% Inhibition of PI3K-α at 0.5 μM (PI3K-α; 0.5 μM, preliminary screening) [%]
N#CCc1ccc(Nc2ncnc3ccc(-c4ccccc4)cc23)cc1 [Compound 6, 6-phenyl-4-(4-cyanomethyl)phenylamino quinazoline]	4.49	4.62	4.64	4.40	4.57	16.4	–	–	–	–	–	–	–	–
N#CCc1ccc(Nc2ncnc3ccc(-c4ccc(F)cc4F)cc23)cc1 [Compound 7, 6-(2,4-difluorophenyl)-4-(4-cyanomethyl)phenylamino quinazoline]	5.15	5.05	5.00	4.68	4.55	17	–	–	–	–	–	–	–	–
N#CCc1ccc(Nc2ncnc3ccc(-c4ccccc4C=O)cc23)cc1 [Compound 8, 6-(2-formylphenyl)-4-(4-cyanomethyl)phenylamino quinazoline]	4.38	4.41	4.04	4.05	4.68	1.3	–	–	–	–	–	–	–	–
CC(=O)c1ccc(-c2ccc3ncnc(Nc4ccc(CC#N)cc4)c3c2)cc1 [Compound 9, 6-(4-acetylphenyl)-4-(4-cyanomethyl)phenylamino quinazoline]	4.55	4.49	4.35	4.89	4.62	44	6.57	< 5.00	>37	6.82	0.5	< 5.00	>37	–
N#CCc1ccc(Nc2ncnc3ccc(-c4cccc(O)c4)cc23)cc1 [Compound 10, 6-(3-hydroxyphenyl)-4-(4-cyanomethyl)phenylamino quinazoline]	4.62	4.55	4.82	4.44	4.43	–	6.94	6.17	5.8	5.74	16	6.57	2.3	69.9
N#CCc1ccc(Nc2ncnc3ccc(-c4cccc([N+](=O)[O-])c4)cc23)cc1 [Compound 11, 6-(3-nitrophenyl)-4-(4-cyanomethyl)phenylamino quinazoline]	4.82	4.64	4.92	5.15	4.54	38.1	6.35	< 5.00	>22.2	6.07	1.9	< 5.00	>22.2	–
Cc1ccccc1-c1ccc2ncnc(Nc3ccc(CC#N)cc3)c2c1 [Compound 12, 6-(2-methylphenyl)-4-(4-cyanomethyl)phenylamino quinazoline]	4.44	4.49	< 4.00	4.17	4.42	4.1	–	–	–	–	–	–	–	–
C=Cc1ccc(-c2ccc3ncnc(Nc4ccc(CC#N)cc4)c3c2)cc1 [Compound 13, 6-(4-vinylphenyl)-4-(4-cyanomethyl)phenylamino quinazoline]	4.80	4.57	4.96	4.49	4.47	36.4	< 5.00	< 5.00	1	6.28	–	< 5.00	1	–
N#CCc1ccc(Nc2ncnc3ccc(-c4ccc(OCc5ccc(F)cc5)cc4)cc23)cc1 [Compound 14, 6-(4-fluorobenzyloxyphen-4-yl)-4-(4-cyanomethyl)phenylamino quinazoline]	4.85	4.80	4.92	4.89	4.89	11	–	–	–	–	–	–	–	–
CC(=O)Nc1cccc(-c2ccc3ncnc(Nc4ccc(CC#N)cc4)c3c2)c1 [Compound 15, 6-(3-acetylaminophenyl)-4-(4-cyanomethyl)phenylamino quinazoline]	4.64	4.42	4.85	4.42	4.59	36.8	6.32	< 5.00	>21	5.16	14.6	< 5.00	>21	–
N#CCc1ccc(Nc2ncnc3ccc(-c4ccc(-c5ccccc5)cc4)cc23)cc1 [Compound 16, 6-(4-phenylphenyl)-4-(4-cyanomethyl)phenylamino-quinazoline]	4.80	4.89	4.54	4.52	5.00	< 0	–	–	–	–	–	–	–	–
CCOc1ccc(-c2ccc(-c3ccc4ncnc(Nc5ccc(CC#N)cc5)c4c3)cc2)cc1 [Compound 17, 6-(4-(4-ethoxyphenyl)phenyl)-4-(4-cyanomethyl)phenylamino-quinazoline]	4.80	4.52	4.59	4.48	4.77	< 0	–	–	–	–	–	–	–	–
N#CCc1ccc(Nc2ncnc3ccc(-c4ccc(-c5ccccc5)cc4F)cc23)cc1 [Compound 18, 6-(4-phenyl-2-fluorophenyl)-4-(4-cyanomethyl)phenylamino-quinazoline]	4.80	4.49	4.89	4.48	4.85	20.3	–	–	–	–	–	–	–	–
N#CCc1ccc(Nc2ncnc3ccc(-c4ccc5ccccc5c4)cc23)cc1 [Compound 19, 6-(naphthalen-2-yl)-4-(4-cyanomethyl)phenylamino-quinazoline]	4.60	4.51	4.80	4.32	4.66	8.2	–	–	–	–	–	–	–	–
N#CCc1ccc(Nc2ncnc3ccc(-c4ccc5c(c4)OCCO5)cc23)cc1 [Compound 20, 6-(2,3-dihydrobenzo[b][1,4]dioxin-6-yl)-4-(4-cyanomethyl)phenylamino-quinazoline]	4.68	4.57	4.47	4.49	4.47	33	6.47	< 5.00	>29.2	5.86	4	< 5.00	>29.2	–
N#CCc1ccc(Nc2ncnc3ccc(-c4cc5ccccc5o4)cc23)cc1 [Compound 22, 6-(benzofuran-2-yl)-4-(4-cyanomethyl)phenylamino-quinazoline]	4.77	5.00	5.05	4.55	5.10	29.8	–	–	–	–	–	–	–	–
N#CCc1ccc(Nc2ncnc3ccc(-c4cc5ccccc5s4)cc23)cc1 [Compound 23, 6-(benzo[b]thiophen-2-yl)-4-(4-cyanomethyl)phenylamino-quinazoline]	4.85	4.85	5.10	4.62	4.89	2.7	–	–	–	–	–	–	–	–
N#CCc1ccc(Nc2ncnc3ccc(-c4cccc5c4oc4ccccc45)cc23)cc1 [Compound 24, 6-(dibenzo(b,d)furan-4-yl)-4-(4-cyanomethyl)phenylamino-quinazoline]	4.92	4.44	4.57	4.51	4.80	1.5	–	–	–	–	–	–	–	–
N#CCc1ccc(Nc2ncnc3ccc(-c4cccc5c4sc4ccccc45)cc23)cc1 [Compound 25, 6-(dibenzo(b,d)thiophene-4-yl)-4-(4-cyanomethyl)phenylamino-quinazoline]	4.51	4.47	4.47	4.48	4.74	< 0	–	–	–	–	–	–	–	–
N#CCc1ccc(Nc2ncnc3ccc(-c4cnc5ccccc5c4)cc23)cc1 [Compound 27, 6-(quinolin-3-yl)-4-(4-cyanomethyl)phenylamino-quinazoline]	4.36	4.05	4.49	4.05	4.64	< 0	–	–	–	–	–	–	–	–
